Tests used:
[1] = test system: U87MG cells from human glioblastoma; assay: Tumor growth in U87MG tumor-bearing mouse; format: in vivo, BALB/c nude mouse; conditions: for rate of tumor volume ratio to tumor volume ratio of the control group on day 39: single i.v. administration
Procedure: (§1) U87MG cells from human glioblastoma were purchased from ATCC, and utilized after growing. A U87MG tumor-bearing model was made by implanting 1×10^7 U87MG cells subcutaneously into the flanks of BALB/c nude mouse (male, 6 weeks old, weighing approximately 20 to 25 g, obtained from Japan SLC). The tumor-bearing mice were subjected to tests when the tumor diameter reached around 5 mm after transplantation of U87MG cells.
(§2) The tumor-bearing mice were randomized into […] (n=7/group), and were intravenously administered with different single doses of ^64Cu-ATSM with 18.5, 37, 74, 111 and 148 MBq, and physiological saline as a control, respectively. To the remaining one group, ^64Cu-ATSM was administered intravenously at a dose of 37 MBq on days 0, 7, 21 and 28 of four times in total (37 MBq×4).
(§3) In each of the following evaluations, data were presented as mean value±standard deviation. Two-way analysis of variance was used in the significant difference test of the data, excluding the survival curve. A Log-rank test was used for the data of the survival curve. Significant levels used were all 5%.
(§4) After the start of the study, mice were weighed twice a week over time, and the size of the tumor was measured with a caliper. The tumor volume was calculated with the formula: tumor volume=length×width^2×π/6, and the tumor volume on each day was expressed as a percentage relative to the initial tumor volume on day 0.

[2] = Measurement of hematological parameters in non-tumor-bearing mice; format: in vivo, mouse
Procedure: as §3
To evaluate side effects, hematological parameters were measured using non-tumor-bearing mice (n=5/group) treated in a manner similar to the tumor-bearing mice described above.
The measurement of hematological parameters was performed by measuring concentrations of white blood cells, red blood cells and platelets using blood collected from the vein at the start point (day 0) immediately before administration of ^64Cu-ATSM and on days 2, 7, 14, 21, 28, 35, 42 and 49 after administration of ^64Cu-ATSM, with a blood analyzer (Celltac MEK-6458, manufactured by NIHON KOHDEN CORPORATION).

[3] = therapeutic dose calculated from 37 MBq per mouse; cited from earlier work
[4] = test system: U87MG cells from human glioblastoma; assay: Survival curve for 80 days of U87MG tumor-bearing mice; format: in vivo, BALB/c nude mouse
Procedure: as §1, §2, §3
After the start of the study, the mice were slaughtered at the time when the tumor volume reached the humanitarian endpoint. Survivability for 80 days was observed, and the survival rate was calculated.

[5] = Internal exposure dose estimate for human
Procedure: Meanwhile, the internal exposure dose with ^64Cu-ATSM was maximum in the liver, and was 0.108 mSv/MBq. This means that when 150 MBq/kg of ^64Cu-ATSM is administered to a human weighing 60 kg, the exposure dose is 16.2 mGy/kg for the liver and 972 mSv for the whole body. When this exposure dose is applied to normal radiotherapy, it corresponds to an exposure equal to single irradiation of 1.215 Gy, which is lower than the single irradiation dose (1.8 to 2.0 Gy) of normal split irradiation in radiotherapy. Also, when 450 MBq/kg is administered to a human weighing 60 kg, the exposure dose is 48.6 mGy/kg for the liver and 2,916 mSv for the whole body. Since the tolerance dose of the liver in normal split irradiation is 30 Gy as a dose that causes side effects in 5% in 5 years, the total dose when administered a total of four times during normal radiotherapy of about 3 Gy will be 11.66 Gy, which is lower than the tolerance dose of the liver described above.
The present inventors have also reported estimates of irradiation doses of ^64Cu-ATSM for human based on in vivo distribution in normal mouse tissue (see, Yoshii Y, Furukawa T, Matsumoto H, Yoshimoto M, Kiyono Y, Zhang M R, Fujibayashi Y, and Saga T (2016) Cu-ATSM therapy targets regions with activated DNA repair and enrichment of CD133 cells in an HT-29 tumor model: Sensitization with a nucleic acid antimetabolite. Cancer Lett 376: 74-82 and Yoshii Y, Matsumoto H, Yoshimoto M, Furukawa T, Morokoshi Y, Sogawa C, Zhang M R, Wakizaka H, Yoshii H, Fujibayashi Y, and Saga T (2014) Controlled administration of penicillamine reduces radiation exposure in critical organs during ^64Cu-ATSM internal radiotherapy: a novel strategy for liver protection. PloS one 9: e86996). […] Thus, doses in the multiple administration of ^64Cu-ATSM to human according to the present invention can be determined as appropriate based on data of therapeutic effect and toxicity in mouse in the present invention. PET imaging of ^64Cu-ATSM may also be performed to monitor the irradiation dose of tumors and tissues during ^64Cu-ATSM therapy for human according to the present invention, thereby enabling theranostics of cancer.

[6] = test system: CD133-positive cells in tumors; conditions: Non-Patent Literatures 3 and 4; cited from earlier work
[7] = Body weight change of U87MG tumor-bearing mice; format: in vivo, BALB/c nude mouse
Procedure: as §2, §3, §4

[8] = Measurement of biochemical parameters (liver and renal function) in non-tumor-bearing mice; format: in vivo, mouse; conditions: any administration group; plasma, day 49
Procedure: as §3
To evaluate side effects, biochemical parameters were measured using non-tumor-bearing mice (n=5/group) treated in a manner similar to the tumor-bearing mice described above.
The measurements of biochemical parameters were performed by measuring amounts of glutamate pyruvate transaminase and alkaline phosphatase for liver function and amounts of urea nitrogen and creatinine for renal function using mouse plasma prepared from blood collected from heart on day 49 after the first administration of ^64Cu-ATSM, with a blood biochemical analyzer (FUJI DRI-CHEM 7000VZ, manufactured by FUJIFILM Corporation).

[9] = test system: CD133-positive cells; conditions: Non-Patent Literature 2; cited from earlier work
[10] = test system: glioblastoma showing high HIF-1α expression; conditions: clinical PET investigations; cited from earlier work
[11] = 111 and 148 MBq single administration
[12] = 37 MBq four-time administration (37 MBq×4)
[13] = 150 MBq/kg to a human weighing 60 kg
[14] = 450 MBq/kg to a human weighing 60 kg

With “radioactive diacetyl-bis(N4-methylthiosemicarbazone) copper complex [^64Cu-ATSM]” the “tumor growth compared to the control group” value ([1]; 37 MBq four times (37 MBq×4)) was “significantly greater inhibition effect of tumor growth”, the “mice with tumors nearly invisible on day 39” value ([1]; 37 MBq four-time administration (37 MBq×4), day 39) was 6 cases among 7 mice and the “rate of tumor volume ratio to that of the control group on day 39” value ([1]; 37 MBq four-time administration (37 MBq×4; days 0, 7, 21, 28), i.v., day 39) was 0.04. The “rate of tumor volume ratio to tumor volume ratio of the control group on day 39” value ([1]; fifth of five printed values, 148 MBq, day 39) was 0.14, the “rate of tumor volume ratio to tumor volume ratio of the control group on day 39” value ([1]; first of five printed values, presumably 18.5 MBq, day 39) was 0.82 and the “rate of tumor volume ratio to tumor volume ratio of the control group on day 39” value ([1]; fourth of five printed values, presumably 111 MBq, day 39) was 0.14. For the same substance, the “rate of tumor volume ratio to tumor volume ratio of the control group on day 39” value ([1]; second of five printed values, presumably 37 MBq, day 39) was 0.31, the “dose dependence of antitumor effect” value ([1]; single administration 18.5-148 MBq) was “dose-dependent antitumor effect, showing a plateau at 111 MBq” and the “tumor growth compared to the control group” value ([1]; single administration at 37, 74, 111 and 148 MBq, 39 days) was “significantly inhibited tumor growth”. The “tumor growth compared to the control group” value ([1]; single administration of 18.5 MBq) was “inhibited tumor growth compared to the control group, but showed no significant difference”, the “rate of tumor volume ratio to tumor volume ratio of the control group on day 39” value ([1]; third of five printed values, presumably 74 MBq, day 39) was 0.28 and the hematological toxicity ([2]; 37 MBq four-time administration (37 MBq×4), throughout the study period) was “no symptoms of hematological toxicity were observed”. The “recovery of number of white blood cells” value ([2]; 74, 111 and 148 MBq single administration) was “recovered to normal on day 21”, the “number of white blood cells (WBC)” value ([2]; 74 and 111 MBq single administration, day 2) was “significant reductions” and the “number of platelets (PLT)” value ([2]; 111 MBq single administration, day 7) was “significant reduction”. For the same substance, the “recovery of number of platelets” value [2, 11] was “recovered to normal on day 14”, the “number of white blood cells (WBC)” value ([2]; 111 and 148 MBq single administration, days 7 and 14) was “significant reductions” and the “recovery of number of red blood cells” value ([2]; 148 MBq single administration) was “recovered to normal on day 14”. The “number of red blood cells (RBC)” value ([2]; 148 MBq single administration, day 7) was “significant reduction”, the “number of platelets (PLT)” value ([2]; 148 MBq single administration, days 2 and 7) was “significant reductions” and the “estimated irradiation doses to liver, red bone marrow and ovary in human” value [3] was “lower than the acceptable dose”. For the same substance, the “survival rate compared to the control group” value ([4]; 37, 74, 111 and 148 MBq single administration groups and 37 MBq×4 group, 80 days) was “higher than that of the control group”, the “survival time compared to the 111 MBq single administration group” value [4, 12] was “longer survival time than the 111 MBq single administration group, but no significant difference” and the “life-extending effect compared to the control group, single administration groups” value ([4]; 111 MBq single administration) was “significant life-extending effect”. The “survival effect among the single administration groups” value ([4]; 111 MBq single administration) was “highest survival effect”, the “survival time compared to the 18.5, 37, 74 and 148 MBq single administration groups” value ([4]; 111 MBq single administration group and 37 MBq×4 group) was “significantly longer survival time” and the “exposure dose for the liver” value [5, 13] was 16.2 mGy/kg. For the same substance, the “exposure dose for the whole body” value [5, 13] was 972 mSv, the “exposure equal to single irradiation of normal radiotherapy” value [5, 13] was 1.215 Gy and the “exposure dose for the liver” value [5, 14] was 48.6 mGy/kg. The “exposure dose for the whole body” value [5, 14] was 2,916 mSv, the “total dose when administered a total of four times” value ([5]; 450 MBq/kg to a human weighing 60 kg, four times) was 11.66 Gy and the “internal exposure dose, liver (maximum organ)” value ([5]; liver) was 0.108 mSv/MBq. For the same substance, the “effect on CD133-positive cells in tumors” value [6] was “reduce CD133-positive cells in tumors”, the body weight loss [7, 12] was “No body weight loss was observed” and the “recovery of body weight” value [7, 11] was “returned to normal body weight by day 14”. For the same substance, the “body weight compared to the control group” value ([7]; 111 and 148 MBq single administration, day 7) was “significantly reduced”, the “alkaline phosphatase (ALP) compared to control” value [8] was “no significant differences” and the “blood urea nitrogen (BUN) compared to control” value [8] was “no significant differences”. For the same substance, the “creatinine (CRE) compared to control” value [8] was “no significant differences”, the “glutamate pyruvate transaminase (GPT) compared to control” value [8] was “no significant differences” and the accumulation in cells [9] was “accumulates in CD133-positive cells”. The “accumulation in tumor (PET)” value [10] was “accumulates in highly malignant grade glioblastoma showing high HIF-1α expression”.

From US12533427B2, “Radioactive antitumor agent” (National Institutes for Quantum Science and Technology, priority 2017, dated 2026)
